Test results from patent US6743811B2, “Oxazalidinone compounds and methods of preparation and use thereof” (Pharmacia & Upjohn Company, priority 1999, dated 2004).

system: Staphylococcus aureus; test: MIC by microdilution method (NCCLS), S. aureus; type: cell-based
Description: Exemplary compounds of formula 1 are as follows. MIC refers to the minimal inhibitory concentration which was determined as described in Example 37.
Minimum inhibitor concentrations (MICs) were determined using the microdilution method according to National Committee for Clinical Laboratory Standards (NCCLS) procedures. Compounds were suspended in DMSO at 10 mg/ml and stored at −20° C. The range of concentrations tested was 64-0.06 μg/ml using two-fold dilutions.
To prepare the inoculum, bacterial cultures were grown overnight at 35° C. on agar plates and each organism was resuspended in 1 ml saline to obtain a 0.5 McFarlands density standard. This was subsequently diluted 1:200 into Mueller-Hinton Broth (MHB) or Haemophilus Test Medium (HTM; for Haemophilus) providing a final inoculum size of 5*10^5 cfu/ml. After inoculation with the bacteria, assay plates were incubated at 35° C. for 18-24 h. […] Gram positive and gram negative strains used included Staphylococcus aureus, Enterococcus faecium, Enterococcus faecalis, Streptococcus pneumoniae, Haemophilus influenzae, Pseudomonas aeruginosa, Escherichia coli, and E. coli (acr)—an efflux pump mutant.

Compound | MIC (minimal inhibitory concentration)
CC(=S)NC[C@H]1CN(c2ccc(N(C)S(C)(=O)=O)c(F)c2)C(=O)O1 | 4-8 Tg/mL
CSc1ccc(N2C[C@H](CNC(C)=S)OC2=O)cc1F [drawing 18] | 4-8 Tg/mL

system: not given; test: not given

melting point [°C] | Compound
180 to 182 | CC(=S)NC[C@H]1CN(c2ccc(C(=O)O)c(F)c2)C(=O)O1
163 to 164 | CC(=S)NC[C@H]1CN(c2ccc(C(=O)Oc3c(F)c(F)c(F)c(F)c3F)c(F)c2)C(=O)O1
176 to 177 | CNC(=O)c1ccc(N2C[C@H](CNC(C)=S)OC2=O)cc1F
152 to 154 | COC(=O)c1ccc(N2C[C@H](CNC(C)=S)OC2=O)cc1F
137 to 188 | CC(=S)NC[C@H]1CN(c2ccc(N)c(F)c2)C(=O)O1
200 to 201 | CC(=O)Nc1ccc(N2C[C@H](CNC(C)=S)OC2=O)cc1F
188 | CC(=S)NC[C@H]1CN(c2ccc(NC(=O)c3ccc([N+](=O)[O-])o3)c(F)c2)C(=O)O1
233 | CC(=O)NC[C@H]1CN(c2ccc(NC(=O)c3csnn3)c(F)c2)C(=O)O1
203 to 204 | CC(=S)NC[C@H]1CN(c2ccc(NC(=O)c3csnn3)c(F)c2)C(=O)O1
103 to 104 | CC(=S)NC[C@H]1CN(c2ccc(N(C)C=S)c(F)c2)C(=O)O1
166 to 167 | CC(=S)NC[C@H]1CN(c2ccc(C3=NOCCO3)c(F)c2)C(=O)O1
177 | CC(=S)NC[C@H]1CN(c2ccc(C(=O)NN)c(F)c2)C(=O)O1
158 to 160 | CC(=S)NC[C@H]1CN(c2ccc([S+](C)[O-])c(F)c2)C(=O)O1 (stereo partly drawn)
138 to 139 | CC[S+]([O-])c1ccc(N2C[C@H](CNC(C)=S)OC2=O)cc1F (stereo partly drawn)
161 | CC(=S)NC[C@H]1CN(c2ccc([S+]([O-])CCF)c(F)c2)C(=O)O1 (stereo partly drawn)
177 | CC(=S)NC[C@H]1CN(c2ccc(S(C)(=O)=O)c(F)c2)C(=O)O1
134 to 135 | CC(=S)NC[C@H]1CN(c2ccc(SCCCl)c(F)c2)C(=O)O1
116 to 117 | CC(=S)NC[C@H]1CN(c2ccc(Sc3ncc([N+](=O)[O-])s3)c(F)c2)C(=O)O1

Compound | melting point [°C]
CSc1ccc(N2C[C@H](CNC(C)=S)OC2=O)cc1F | 130 to 131
